In patent US11339144B2 (Navitor Pharmaceuticals, Inc., priority 2017, dated 2022):
pIC50: −log10 of the molar value.

Molecular target: HA-GST-Rheb (GTP-γ-S loaded) activating mTORC1 (Homo sapiens (Human), UniProt Q15382)
Assay: Rheb-dependent in vitro kinase assay (Rheb-IVK; LanthaScreen or Western readout)
Assay type: biochemical
Parameters: IVK IC50 (μM): scale not given here
Settings: Rheb-dependent in vitro kinase assay; for pIC50: read-out: IVK IC50

Chain of HA-GST-Rheb (GTP-γ-S loaded) activating mTORC1 (Q15382 1-181): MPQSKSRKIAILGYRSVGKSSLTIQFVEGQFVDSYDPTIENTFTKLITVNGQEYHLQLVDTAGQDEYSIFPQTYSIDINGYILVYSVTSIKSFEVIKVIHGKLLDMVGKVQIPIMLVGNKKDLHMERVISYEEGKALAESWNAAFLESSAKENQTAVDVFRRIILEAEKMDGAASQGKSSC

| Molecule | pIC50 | IVK IC50 (μM) |
| --- | --- | --- |
| Nc1nonc1-c1nc2cc(Cl)c(Cl)cc2n1Cc1ccccc1 [I-491] | < 4.00 | – |
| Cn1c(CO)cc2c(Oc3ccccc3)c(Cl)ccc21 [I-289] | < 4.00 | – |
| CCn1c(CO)nc2cc(Cl)c(OCc3ccc(F)cc3)cc21 [I-445] | < 4.00 | – |
| CCn1c(CO)nc2cc(Cl)c(OCc3ccccc3)cc21 [I-488] | < 4.00 | – |
| CCn1c(CO)nc2cc(OCc3ccccc3)cc(Cl)c21 [I-412] | < 4.00 | – |
| CCn1c(CO)nc2cc(Cl)c(OCc3cccc(F)c3)cc21 [I-443] | < 4.00 | – |
| Clc1ccccc1Oc1cccc2[nH]ccc12 [I-285] | < 4.00 | – |
| O=C(O)c1ccc(Sc2cccc3[nH]ccc23)cc1 [I-192] | < 4.00 | – |
| Nc1nccc(COc2c(Cl)c(Cl)cc3[nH]c(CO)nc23)n1 [I-423] | < 4.00 | – |
| Clc1ccc2c(c1)nc(-c1ncco1)n2Cc1ccc(-c2nn[nH]n2)cc1 [I-410] | < 4.00 | – |
| OCc1nc2cc(OCc3ccccc3Cl)c(Cl)cc2[nH]1 [I-485, (5-chloro-6-(2-chlorobenzyloxy)-1H-benzo[d]imidazol-2-yl)methanol] | 3.10 to 3.52 | – |
| CCn1c(CO)nc2cc(OCCc3ccccc3)c(Cl)cc21 [I-430] | < 4.00 | – |
| CCn1c(CO)nc2cc(Cl)c(OCc3ccccc3F)cc21 [I-454] | < 4.00 | – |
| OCc1cc2c(Oc3ccc(F)cc3)cccc2[nH]1 [I-278, (4-(4-fluorophenoxy)-1H-indol-2-yl)methanol] | 3.10 to 3.52 | – |
| OCc1nc2cc(OCc3ccc(F)cc3)c(Cl)cc2[nH]1 [I-482, (6-chloro-5-(4-fluorobenzyloxy)-1H-benzo[d]imidazol-2-yl)methanol] | 3.52 to 4.00 | – |
| COC(=O)c1cc2c(Sc3ccc(Cl)cc3Cl)cc(Cl)cc2n1Cc1ccc(Br)cc1 [I-104] | < 4.00 | – |
| OCc1nc2c(Oc3ccc(Cl)cc3)cccc2n1Cc1nc[nH]n1 [I-408] | < 4.00 | – |
| Clc1ccc(CSc2cccc3[nH]ccc23)cc1Cl [I-191] | < 4.00 | – |
| Cc1cc(Oc2ccccc2)cc2c1cc(CO)n2C [I-245] | < 4.00 | – |
| Cn1c(CO)cc2c(Oc3ccccc3Cl)cccc21 [I-272] | < 4.00 | – |
| OCc1cc2ccc(Oc3ccccc3)cc2n1Cc1nc[nH]n1 [I-214] | < 4.00 | – |
| NC(=O)Cn1c(CO)nc2cc(OCc3ccccc3)c(Cl)cc21 [I-475, 2-(5-(benzyloxy)-6-chloro-2-(hydroxymethyl)-1H-benzo[d]imidazol-1-yl)acetamide] | 3.52 to 4.00 | – |
| CCCn1c(CO)nc2cc(Cl)c(OCc3ccccc3)cc21 [I-480] | < 4.00 | – |

| Molecule | pIC50 | IVK IC50 (μM) |
| --- | --- | --- |
| Cn1c(CO)cc2c(Oc3ccccc3)cccc21 [I-280] | < 4.00 | – |
| Clc1cc2nc(-c3cnon3)n(Cc3ccc(-c4nn[nH]n4)cc3)c2cc1Cl [I-474, 3-(1-(4-(2H-tetrazol-5-yl)benzyl)-5,6-dichloro-1H-benzo[d]imidazol-2-yl)-1,2,5-oxadiazole] | 3.10 to 3.52 | – |
| CC(=O)OCCc1cc2c(Oc3ccccc3)c(Cl)ccc2[nH]1 [I-260] | < 4.00 | – |
| OCc1ccc(Sc2cccc3[nH]ccc23)cc1 [I-183] | < 4.00 | – |
| O=S(=O)(c1ccc(Cl)cc1)c1cccc2[nH]ccc12 [I-242] | < 4.00 | – |
| Cn1ccc2c(NC3CCCNC3)cccc21 (centres unmarked) [I-298] | < 4.00 | – |
| O=C(O)CCc1cc2c(Oc3ccccc3)c(Cl)ccc2[nH]1 [I-253] | < 4.00 | – |
| Clc1ccc(Sc2cccc3c2ccn3Cc2nc[nH]n2)cc1 [I-196, 1-((1H-1,2,4-triazol-3-yl)methyl)-4-(4-chlorophenylthio)-1H-indole] | 4.00 to 5.00 | – |
| OCc1cc2c(C3CCCNC3)cc(Oc3ccccc3)cc2[nH]1 (centres unmarked) [I-219] | < 4.00 | – |
| N#CCc1nc2cc(OCc3ccccc3)c(Cl)cc2[nH]1 [I-473] | < 4.00 | – |
| Cn1ccc(-c2cc(Oc3ccccc3)cc3[nH]c(CO)cc23)n1 [I-213] | < 4.00 | – |
| OCc1cc2c(C3CCCCC3)cc(Oc3ccccc3)cc2[nH]1 [I-223] | < 4.00 | – |
| CCOCc1nc2c(Cl)cc(OCc3ccccc3)cc2n1CC [I-415] | < 4.00 | – |
| COC(=O)c1cc(Sc2ccc(Cl)cc2)c2cc[nH]c2c1 [I-197] | < 4.00 | – |
| O=C(O)c1cccc(Cn2c(-c3ncco3)nc3cc(Cl)c(Cl)cc32)c1 [I-446] | < 4.00 | – |
| OCc1nc2c(OCC3CCCCO3)c(Cl)c(Cl)cc2[nH]1 (centres unmarked) [I-398] | < 4.00 | – |
| OCc1nc2c(OCc3ccnc(Cl)n3)c(Cl)c(Cl)cc2[nH]1 [I-424] | < 4.00 | – |
| CCn1c(CO)nc2cc(OCc3ccc(F)cc3)c(Cl)cc21 [I-444] | < 4.00 | – |
| OCc1cc2c(Oc3ccccc3F)cccc2[nH]1 [I-277, (4-(2-fluorophenoxy)-1H-indol-2-yl)methanol] | 3.10 to 3.52 | – |
| NC(=O)c1ccc(Cn2c(-c3ncco3)nc3cc(Cl)c(Cl)cc32)cc1 [I-451] | < 4.00 | – |
| [O-][S+](c1ccccc1Cl)c1cccc2[nH]ccc12 (centres unmarked) [I-231] | < 4.00 | – |
| OCc1nc2c(OC[C@H]3CCCC[C@@H]3O)c(Cl)c(Cl)cc2n1Cc1nc[nH]n1 [I-392] | < 4.00 | – |
| CCn1c(CO)nc2cc(OCc3cccc(F)c3)c(Cl)cc21 [I-442] | < 4.00 | – |

| Molecule | pIC50 | IVK IC50 (μM) |
| --- | --- | --- |
| O=S(=O)(c1cccc(Cl)c1)c1cccc2[nH]ccc12 [I-240] | < 4.00 | – |
| CCOCc1nc2cc(OCc3ccccc3)cc(Cl)c2n1CC [I-414] | < 4.00 | – |
| OCc1cc2c(OCCc3ccccc3)cc(Cl)cc2[nH]1 [I-279] | < 4.00 | – |
| OCc1nc2c(OCCc3c[nH]cn3)c(Cl)c(Cl)cc2[nH]1 [I-384] | < 4.00 | – |
| Cn1ccc2c(Oc3ccc(Cl)cc3)cccc21 [I-268] | < 4.00 | – |
| CCn1c(CO)nc2cc(Cl)c(OCCc3ccccc3)cc21 [I-431] | < 4.00 | – |
| Nc1nonc1-c1nc2cc(Cl)c(Cl)cc2n1Cc1ccc(-c2nn[nH]n2)cc1 [I-490, 4-(1-(4-(2H-tetrazol-5-yl)benzyl)-5,6-dichloro-1H-benzo[d]imidazol-2-yl)-1,2,5-oxadiazol-3-amine] | 4.00 to 5.00 | – |
| OCc1nc2cc(Cl)c(OCc3ccccc3)cc2n1Cc1nc[nH]n1 [I-402] | < 4.00 | – |
| Clc1ccc(Sc2cc(Cl)c3cc[nH]c3c2)cc1 [I-201, 4-chloro-6-(4-chlorophenylthio)-1H-indole] | 4.00 to 5.00 | – |
| OCc1nc2cc(OCc3ccccc3)c(Cl)cc2n1Cc1ccccc1 [I-466] | < 4.00 | – |
| CCn1c(CO)nc2cc(OCc3cccc(Cl)c3)c(Cl)cc21 [I-401] | < 4.00 | – |
| Cn1ccc2c(Oc3cccc(Cl)c3)cccc21 [I-270] | < 4.00 | – |
| Nc1cccc(COc2c(Cl)c(Cl)cc3nc(CO)[nH]c23)n1 [I-464] | < 4.00 | – |
| OCc1cc2c(Oc3ccccc3)cccc2[nH]1 [I-287] | < 4.00 | – |
| Cn1ccc2c(Oc3ccccc3Cl)cccc21 [I-269] | < 4.00 | – |
| Cc1cc(Oc2ccccc2)cc2c1cc(CO)n2Cc1nc[nH]n1 [I-234] | – | E/F |
| OCc1cc2c(Br)cc(Oc3ccccc3)cc2n1Cc1nc[nH]n1 [I-225] | < 4.00 | – |
| OCc1nc2c(OC[C@H]3CCCC[C@@H]3O)c(Cl)c(Cl)cc2[nH]1 (racemic) [I-383, (+,−)-trans-2-((5,6-dichloro-2-(hydroxymethyl)-1H-benzo[d]imidazol-4-yloxy)methyl)cyclohexanol] | 4.00 to 5.00 | – |
| OCc1nc2c(Br)cc(Oc3ccccc3)cc2[nH]1 [I-428, (4-bromo-6-phenoxy-1H-benzo[d]imidazol-2-yl)methanol] | < 4.00 | – |
| O=C(O)c1ccc(Cn2c(-c3ncco3)nc3cc(Cl)c(Cl)cc32)cc1 [I-452] | < 4.00 | – |
| CCn1c(CO)nc2cc(OCc3ccccc3Cl)c(Cl)cc21 [I-432] | < 4.00 | – |
| O=C1CCC(COc2c(Cl)c(Cl)cc3[nH]c(CO)nc23)N1 (centres unmarked) [I-419] | < 4.00 | – |
| Cn1c(CO)cc2c(Sc3ccc(Cl)cc3)cc(Cl)cc21 [I-206] | < 4.00 | – |

| Molecule | pIC50 | IVK IC50 (μM) |
| --- | --- | --- |
| CNC(=O)c1ccc(Sc2cccc3[nH]ccc23)cc1 [I-184] | < 4.00 | – |
| OCc1cc2c(Oc3ccccc3Cl)cccc2[nH]1 [I-276, (4-(2-chlorophenoxy)-1H-indol-2-yl)methanol] | 3.52 to 4.00 | – |
| Nc1ncncc1COc1c(Cl)c(Cl)cc2[nH]c(CO)nc12 [I-409] | < 4.00 | – |
| Clc1cc2nc(-c3ncco3)n(Cc3cccc(-c4nn[nH]n4)c3)c2cc1Cl [I-438] | < 4.00 | – |
| OCc1nc2c(OCc3cncnc3O)c(Cl)c(Cl)cc2[nH]1 [I-405] | < 4.00 | – |
| OCc1nc2c(Oc3ccccc3Cl)cccc2n1Cc1nc[nH]n1 [I-407, (1-((1H-1,2,4-triazol-3-yl)methyl)-4-(2-chlorophenoxy)-1H-benzo[d]imidazol-2-yl)methanol] | < 4.00 | – |
| Cc1cc2c(Sc3ccc(Cl)cc3)cccc2[nH]1 [I-203] | < 4.00 | – |
| (4-(2-(2-aminopyridin-4-yl)ethoxy)-5,6-dichloro-1H-benzo[d]imidazol-2-yl)methanol [I-182] | < 4.00 | – |
| Clc1cc2nc(-c3ccncc3)[nH]c2c(Cl)c1Cl [I-353, 5,6,7-trichloro-2-(pyridin-4-yl)-1H-benzo[d]imidazole] | < 5.52 | – |
| N#Cc1ccc(Cn2c(-c3ncco3)nc3cc(Cl)c(Cl)cc32)cc1 [I-453] | < 4.00 | – |
| COc1ccc(Cn2cnc3c(Br)cc(Oc4ccccc4)cc32)cc1 [I-429] | < 4.00 | – |
| OCc1nc2ccc(Oc3ccccc3)cc2n1Cc1nc[nH]n1 [I-397] | < 4.00 | – |
| O=C(O)c1cc(Sc2ccc(Cl)cc2)c2cc[nH]c2c1 [I-193] | < 4.00 | – |
| NC(=O)c1cccc(Cn2c(-c3ncco3)nc3cc(Cl)c(Cl)cc32)c1 [I-447] | < 4.00 | – |
| OCc1nc2cc(Cl)c(OCc3ccccc3)cc2n1Cc1ccccc1 [I-467] | < 4.00 | – |
| CCn1c(CO)nc2cc(Cl)c(OCc3ccccc3Cl)cc21 [I-433] | < 4.00 | – |
| OCc1nc2c(Oc3ccccc3)c(Cl)ccc2[nH]1 [I-418, (5-chloro-4-phenoxy-1H-benzo[d]imidazol-2-yl)methanol] | 3.52 to 4.00 | – |
| [O-][S+](c1cccc(Cl)c1)c1cccc2[nH]ccc12 (centres unmarked) [I-233] | < 4.00 | – |
| OCc1cc2cc(Sc3ccccc3)ccc2n1Cc1nc[nH]n1 [I-181] | < 4.00 | – |
| Nc1ncccc1COc1c(Cl)c(Cl)cc2[nH]c(CO)nc12 [I-436] | < 4.00 | – |
| CCn1c(CO)nc2cc(OCc3ccccc3F)c(Cl)cc21 [I-461] | < 4.00 | – |
| Cn1c(CO)cc2c(Oc3cccc(F)c3)cccc21 [I-262] | < 4.00 | – |
| c1cnc(Nc2cccc3[nH]ccc23)nc1 [I-189] | < 4.00 | – |
